Source: the NIST ThermoML archive (doi:10.1021/je700754k)

Tests used:
[1] = xn = mol fraction of the nth substance listed; settings: 101 kPa, Liquid
[2] = excess molar enthalpy (molar enthalpy of mixing); xn = mol fraction of the nth substance listed; settings: 303.15 K, 101 kPa, Liquid, Calvet calorimetry

CCCCn1cc[n+](C)c1.COS(=O)(=O)[O-] [1-butyl-3-methylimidazolium methyl sulfate] + CCO
mass density [kg/m3], [1]
Settings | 293.15 K | 303.15 K | 313.15 K | 323.15 K
x1 = 0.0459 | 854.75 | 846.48 | 838.14 | 829.69
x1 = 0.0987 | 913.25 | 905.23 | 897.17 | 889.06
x1 = 0.142 | 952 | 944.14 | 936.26 | 928.36
x1 = 0.1905 | 988.2 | 980.49 | 972.79 | 965.08
x1 = 0.2357 | 1016.76 | 1009.19 | 1001.63 | 994.07
x1 = 0.2733 | 1037.27 | 1029.8 | 1022.32 | 1014.88
x1 = 0.3516 | 1073.29 | 1065.97 | 1058.67 | 1051.41
x1 = 0.4381 | 1104.9 | 1097.71 | 1090.57 | 1083.48
x1 = 0.5335 | 1132.61 | 1125.56 | 1118.55 | 1111.6
x1 = 0.5712 | 1141.96 | 1134.95 | 1127.99 | 1121.09
x1 = 0.6742 | 1163.83 | 1156.95 | 1150.1 | 1143.31
x1 = 0.7665 | 1180.16 | 1173.37 | 1166.61 | 1159.9
x1 = 0.8482 | 1192.27 | 1185.55 | 1178.85 | 1172.21
x1 = 0.9248 | 1202.35 | 1195.72 | 1189.08 | 1182.49
x1 = 1 | 1211.17 | 1204.48 | 1197.92 | 1191.39

[2]
Settings | excess molar enthalpy [kJ/mol]
x1 = 0.016 | 0.211
x1 = 0.0338 | 0.368
x1 = 0.1032 | 0.862
x1 = 0.1897 | 1.16
x1 = 0.2821 | 1.32
x1 = 0.3379 | 1.28
x1 = 0.5068 | 1.07
x1 = 0.5946 | 0.958
x1 = 0.7119 | 0.696
x1 = 0.7889 | 0.51
x1 = 0.9083 | 0.22

CCCCn1cc[n+](C)c1.COS(=O)(=O)[O-] [1-butyl-3-methylimidazolium methyl sulfate] + C[N+](=O)[O-]
mass density [kg/m3], [1]
Settings | 293.15 K | 303.15 K | 313.15 K | 323.15 K
x1 = 0.0398 | 1152.79 | 1140.52 | 1128.19 | 1115.81
x1 = 0.1021 | 1167.13 | 1156.18 | 1145.2 | 1134.22
x1 = 0.1433 | 1174.03 | 1163.71 | 1153.39 | 1143.09
x1 = 0.1988 | 1181.04 | 1171.38 | 1161.73 | 1152.11
x1 = 0.2444 | 1185.56 | 1176.34 | 1167.13 | 1157.97
x1 = 0.2998 | 1189.98 | 1181.18 | 1172.41 | 1163.68
x1 = 0.3979 | 1195.81 | 1187.57 | 1179.37 | 1171.23
x1 = 0.4786 | 1199.41 | 1191.53 | 1183.69 | 1175.91
x1 = 0.5652 | 1202.31 | 1194.73 | 1187.19 | 1179.71
x1 = 0.7127 | 1206.24 | 1199.08 | 1191.95 | 1184.88
x1 = 0.8212 | 1208.19 | 1201.28 | 1194.38 | 1187.53
x1 = 0.8546 | 1208.81 | 1201.97 | 1195.14 | 1188.36
x1 = 1 | 1211.16 | 1204.45 | 1197.88 | 1191.35

[2]
Settings | excess molar enthalpy [kJ/mol]
x1 = 0.0804 | -0.159
x1 = 0.1617 | -0.285
x1 = 0.2832 | -0.396
x1 = 0.394 | -0.466
x1 = 0.4351 | -0.451
x1 = 0.5566 | -0.418
x1 = 0.6675 | -0.37
x1 = 0.7671 | -0.273
x1 = 0.8761 | -0.13
